Earlier results in patent US20100034838A1, “Transdermal Administration of Active Agents for Systemic Effect” (priority 2005, published 2010).

CN1CCCC1c1cccnc1 (centres unmarked) [nicotine]
nicotine levels in the blood (nicotine patches, approximately 4-6 hours after adhesion of a medicinal patch to the skin): 10 to 15 ng/mL | blood nicotine peak (smoking a cigarette, approximately 5 minutes after smoking is commenced): about 25 ng/ml
